Experimental data taken from patent US10308959B2, “Methods, systems, and compositions relating to MiRNA-146a” (Henry Ford Health System, priority 2013, dated 2019).

Experiments:
[1] = test system: mouse OPC cell line-N20.1; assay: QrtPCR of mRNA (MBP, p38MAPK) in N20.1 cells; format: cell-based; details: in the presence of polymyxin B (50 μg/ml); 50 and 100 ng/ml, 4 days
Description: The mouse primary cultures of OPCs were conditionally immortalized by transformation with a temperature-sensitive large T-antigen into a mouse OPC cell line-N20.1 (21). N20.1 cells were provided by Dr. Anthony Campagnoni (University of California at Los Angeles). N20.1 cells were grown and maintained in Dulbecco's modified Eagle's medium (“DMEM”)/F12 with 1% fetal bovine serum (“FBS”) and G418 (100 μg/ml) at 37° C. For N20.1 cells, transient transfections were performed with Nucleofector kit according to the manufacturer's protocol (Amaxa, Germany). The cells (10^6) were mixed with 1 μg plasmid DNA or 100 pmol of siRNA/oligo nucleotides and pulsed according to the manufacturer's instruction. The transfected cells were immediately plated into Petri dishes with DMEM containing 1% FBS and incubated at 37° C. for days. Primary rat embryonic OPCs were transiently transfected with Lipofectamine (Invitrogen) overnight, according to the manufacturer's protocol (see Chew et al., J. Neuroscience 30(33): 11011-11027 (2010)). Amounts of DNA and siRNA/oligo nucleotides were used as recommended by the manufacturer. The control plasmid (pcDNA3) was used as a mock transfected control for miR-146a expression vector transfection, and control siRNA (Ambion, a random mixture of oligonucleotides) was used as a mock transfected control for both transfections with Tβ4siRNA and anti-miR-146a inhibitor nucleotides. The cells (10^4 cells/cm^2) were treated with 0, 25, 50, 100 ng/ml of Tβ4 (RegeneRx Biopharmaceuticals Inc., Rockville, Md.). The cells were incubated at 37° C. and fed every 2 days with fresh medium (DMEM containing 1% FBS for N20.1 cells and BDM for primary rat embryonic OPCs) with and without Tβ4 for 4 days. […]
After qrtPCR, agarose gel electrophoresis was performed to verify the quality of the qrtPCR products. No secondary products were detected. […] Values obtained from three independent experiments were analyzed relative to gene expression data using the 2^−ΔΔCT method.

[2] = test system: primary rat embryonic OPCs; assay: QrtPCR of mRNA (MBP, p38MAPK) in primary rat embryonic OPCs; format: cell-based; details: in the presence of polymyxin B (50 μg/ml); 50 and 100 ng/ml, 4 days
Description: Primary rat embryonic OPCs were isolated and prepared according to the method known to the skilled artisan. Briefly, on embryonic day 17, rat embryos were removed from a pregnant Wistar rat in a laminar flow hood. The cortices were dissected out by using microdissecting scissors, rinsed twice in Hank's buffered salt solution and dissociated after digesting with 0.01% trypsin and DNase at 37° C. for 15 min. The digested cells were washed twice, filtered through a 70 mm nylon cell strainer and plated with DMEM containing 20% fetal bovine serum (FBS) in poly-D-lysine coated T75 cell culture flasks (approximately 10 million cells per flask). The cells grew to confluence for 10 days and then were placed on the shaker at 200 r.p.m. at 37° C. for 1 h to remove microglial cells. Subsequently, the cells were left on the shaker for an additional 18-20 h to collect OPCs. The collected OPCs were plated in untreated Petri dishes for 1 h to remove contaminated microglia and astrocytes which attach to the Petri dish more efficiently than OPCs. The unattached OPCs were transferred onto poly-D,L-ornithine-coated Petri dishes at a cell density of 10^4 per/cm2 with a basal chemically defined medium (“BDM”) containing 10 ng/ml platelet-derived growth factor-alpha (“PDGF-AA”) and 10 ng/ml basic fibroblast growth factor (“bFGF”) for 7-10 days.
The mouse primary cultures of OPCs were conditionally immortalized by transformation with a temperature-sensitive large T-antigen into a mouse OPC cell line-N20.1 (21). N20.1 cells were provided by Dr. Anthony Campagnoni (University of California at Los Angeles). N20.1 cells were grown and maintained in Dulbecco's modified Eagle's medium (“DMEM”)/F12 with 1% fetal bovine serum (“FBS”) and G418 (100 μg/ml) at 37° C. For N20.1 cells, transient transfections were performed with Nucleofector kit according to the manufacturer's protocol (Amaxa, Germany). The cells (10^6) were mixed with 1 μg plasmid DNA or 100 pmol of siRNA/oligo nucleotides and pulsed according to the manufacturer's instruction. […]

[3] = test system: diabetic mice (db/db mice); assay: Diabetic peripheral neuropathy in type II diabetic mice (db/db); format: in vivo, mouse
Text: DRG neurons play an important role in sensory conduction. Diabetic peripheral neuropathy is characterized by the loss and/or degeneration of neurons and the slowing of nerve conduction velocities. Using a mouse model of type II diabetes which develops severe peripheral neuropathy, we measured miR-146a expression in DRG neurons. […] FIG. 5H is quantitative data of caspase 3 positive cells. FIGS. 5I and J are neurological function measured by motor nerve conduction velocity (MCV, FIG. 5I) and sensory nerve conduction velocity (“SCV”, FIG. 5J). Red, blue, and black lines represent non-diabetic mice, diabetic mice treated with saline, and diabetic mice treated with sildenafil, respectively. *P<0.01 versus the nondiabetic group. #P<0.05 versus the diabetic group treated with saline. n=10/group. […] Elevation of miR-146a in DRG neurons by sildenafil rescued diabetes-induced DRG neuron death and improved neurological outcomes (FIG. 5).

[4] = diabetic mice treated with sildenafil

Molecule | expression of MBP, mRNA and protein levels [1] | expression of MBP, mRNA and protein levels [2] | diabetes-induced DRG neuron death (caspase 3 positive cells) [3, 4] | miR-146a in DRG neurons [3, 4] | neurological outcomes (MCV, SCV) ([3]; diabetic mice treated with sildenafil vs saline)
boiled denatured Tβ4: Tβ4 (100 ng/ml) boiled for 10 minutes to denature the protein, used as a negative control (SDKPDMAEIEKFDKSKLKKTETQEKNPLPSKETIEQEKQAGES; heat-denatured; UniProt P62328 2-44, looked up) [reference compound] | no effect | no effect |  |  | 
CCCc1nn(C)c2c(=O)[nH]c(-c3cc(S(=O)(=O)N4CCN(C)CC4)ccc3OCC)nc12 [sildenafil] |  |  | rescued | Elevation | improved
